By IC50 is commonly meant the concentration that inhibits the measured activity by half. The term logD denotes lipophilicity at a set pH, counting ionised and neutral species. A low value points to a more hydrophilic compound.

≈ marks a conversion by molar mass, not a printed value.

For series [1], the target named is T1, Carnitine O-palmitoyltransferase 1, muscle isoform (Homo sapiens, UniProt Q92523).
T1 sequence (Q92523 whole entry): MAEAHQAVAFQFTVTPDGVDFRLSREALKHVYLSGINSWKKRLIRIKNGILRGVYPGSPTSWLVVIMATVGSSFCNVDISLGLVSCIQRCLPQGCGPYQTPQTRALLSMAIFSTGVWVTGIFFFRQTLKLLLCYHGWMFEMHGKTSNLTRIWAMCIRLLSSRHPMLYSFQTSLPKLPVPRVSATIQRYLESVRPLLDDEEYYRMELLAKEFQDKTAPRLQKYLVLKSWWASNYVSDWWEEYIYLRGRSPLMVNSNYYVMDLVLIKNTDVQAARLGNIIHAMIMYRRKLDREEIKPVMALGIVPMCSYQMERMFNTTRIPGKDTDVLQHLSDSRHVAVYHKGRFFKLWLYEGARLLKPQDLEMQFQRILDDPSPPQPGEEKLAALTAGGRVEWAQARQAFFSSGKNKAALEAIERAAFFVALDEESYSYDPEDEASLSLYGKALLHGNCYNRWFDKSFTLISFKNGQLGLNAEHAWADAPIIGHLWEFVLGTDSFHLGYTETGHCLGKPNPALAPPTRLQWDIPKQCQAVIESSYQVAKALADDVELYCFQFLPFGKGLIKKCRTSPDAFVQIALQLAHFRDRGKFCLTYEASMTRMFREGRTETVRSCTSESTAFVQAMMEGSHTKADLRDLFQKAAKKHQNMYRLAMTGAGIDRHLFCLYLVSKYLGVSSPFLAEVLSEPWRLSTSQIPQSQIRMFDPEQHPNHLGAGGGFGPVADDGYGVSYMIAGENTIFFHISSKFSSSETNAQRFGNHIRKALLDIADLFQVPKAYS
In words: SUPPLEMENTARY: Inhibition of Carnitine palmitoyltransferase 1, muscle isoform. Also on record: species or system Muscle tissue.

For series [2], the target named is T2, Carnitine O-palmitoyltransferase 2, mitochondrial (Homo sapiens, UniProt P23786).
T2 sequence (P23786 whole entry): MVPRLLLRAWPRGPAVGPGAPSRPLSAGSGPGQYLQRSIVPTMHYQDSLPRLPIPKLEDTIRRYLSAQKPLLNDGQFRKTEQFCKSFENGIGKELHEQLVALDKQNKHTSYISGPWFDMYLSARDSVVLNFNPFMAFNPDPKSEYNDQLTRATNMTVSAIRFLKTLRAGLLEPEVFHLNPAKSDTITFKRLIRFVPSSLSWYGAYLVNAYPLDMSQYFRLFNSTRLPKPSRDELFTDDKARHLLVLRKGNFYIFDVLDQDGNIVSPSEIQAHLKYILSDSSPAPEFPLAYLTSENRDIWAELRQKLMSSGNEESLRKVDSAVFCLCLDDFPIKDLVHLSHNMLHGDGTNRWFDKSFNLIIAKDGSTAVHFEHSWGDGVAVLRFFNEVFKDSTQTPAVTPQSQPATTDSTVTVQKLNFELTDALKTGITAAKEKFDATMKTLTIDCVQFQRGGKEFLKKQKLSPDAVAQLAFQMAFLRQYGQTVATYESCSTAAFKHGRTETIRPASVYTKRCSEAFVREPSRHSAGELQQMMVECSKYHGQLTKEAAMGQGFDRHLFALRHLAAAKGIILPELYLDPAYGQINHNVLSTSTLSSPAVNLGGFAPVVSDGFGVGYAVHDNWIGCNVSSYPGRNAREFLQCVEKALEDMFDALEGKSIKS
As to the kind of experiment: (§1) SUPPLEMENTARY: Inhibition of Carnitine palmitoyltransferase 2.

For series [3], the target named is T3, Carnitine O-palmitoyltransferase 2, mitochondrial (Rattus norvegicus, UniProt P18886).
T3 sequence (P18886 whole entry): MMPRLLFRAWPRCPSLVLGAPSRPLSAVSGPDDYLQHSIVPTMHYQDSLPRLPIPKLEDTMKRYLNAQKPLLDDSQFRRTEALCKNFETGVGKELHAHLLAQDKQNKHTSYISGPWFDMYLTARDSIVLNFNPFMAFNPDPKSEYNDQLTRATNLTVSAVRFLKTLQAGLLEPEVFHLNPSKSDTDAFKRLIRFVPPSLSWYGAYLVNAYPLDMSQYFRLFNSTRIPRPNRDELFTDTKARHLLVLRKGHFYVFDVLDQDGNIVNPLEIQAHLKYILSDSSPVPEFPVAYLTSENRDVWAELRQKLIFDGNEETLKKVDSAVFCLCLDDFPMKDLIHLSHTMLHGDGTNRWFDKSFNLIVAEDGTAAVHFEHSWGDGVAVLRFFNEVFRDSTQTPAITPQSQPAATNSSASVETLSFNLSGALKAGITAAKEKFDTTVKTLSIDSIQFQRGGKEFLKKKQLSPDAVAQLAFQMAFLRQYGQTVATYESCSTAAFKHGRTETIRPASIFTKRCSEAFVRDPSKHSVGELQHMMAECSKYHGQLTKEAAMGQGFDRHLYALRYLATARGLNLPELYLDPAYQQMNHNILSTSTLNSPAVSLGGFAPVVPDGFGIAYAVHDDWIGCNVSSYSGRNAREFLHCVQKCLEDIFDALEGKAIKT
Described as §1.

Series [4] deals with T4, Carnitine O-palmitoyltransferase 1, liver isoform (Homo sapiens, UniProt P50416).
T4 sequence (P50416 whole entry): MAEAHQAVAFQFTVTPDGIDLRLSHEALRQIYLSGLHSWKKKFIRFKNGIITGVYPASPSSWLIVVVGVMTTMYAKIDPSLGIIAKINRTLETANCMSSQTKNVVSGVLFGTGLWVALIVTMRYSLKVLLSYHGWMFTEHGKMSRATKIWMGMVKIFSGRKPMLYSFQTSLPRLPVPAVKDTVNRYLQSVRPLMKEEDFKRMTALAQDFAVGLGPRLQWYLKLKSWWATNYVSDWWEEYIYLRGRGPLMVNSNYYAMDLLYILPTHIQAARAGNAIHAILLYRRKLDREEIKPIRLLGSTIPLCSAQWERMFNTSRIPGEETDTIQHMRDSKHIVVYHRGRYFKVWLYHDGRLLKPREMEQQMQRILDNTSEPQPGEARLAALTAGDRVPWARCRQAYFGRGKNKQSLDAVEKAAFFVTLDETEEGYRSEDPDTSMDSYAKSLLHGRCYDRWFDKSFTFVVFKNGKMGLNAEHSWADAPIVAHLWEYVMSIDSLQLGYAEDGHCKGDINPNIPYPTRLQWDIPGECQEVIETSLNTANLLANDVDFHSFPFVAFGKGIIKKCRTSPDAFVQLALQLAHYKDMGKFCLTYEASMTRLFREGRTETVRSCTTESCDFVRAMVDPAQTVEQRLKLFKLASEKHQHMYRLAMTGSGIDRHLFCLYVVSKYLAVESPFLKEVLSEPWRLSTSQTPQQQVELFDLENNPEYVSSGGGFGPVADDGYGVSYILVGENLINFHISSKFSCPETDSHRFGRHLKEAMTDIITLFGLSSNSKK
As to the kind of experiment: (§2) SUPPLEMENTARY: Inhibition of Carnitine palmitoyltransferase 1, liver isoform.

For series [5], the target named is T5, Carnitine O-palmitoyltransferase 1, liver isoform (Rattus norvegicus, UniProt P32198).
T5 sequence (P32198 whole entry): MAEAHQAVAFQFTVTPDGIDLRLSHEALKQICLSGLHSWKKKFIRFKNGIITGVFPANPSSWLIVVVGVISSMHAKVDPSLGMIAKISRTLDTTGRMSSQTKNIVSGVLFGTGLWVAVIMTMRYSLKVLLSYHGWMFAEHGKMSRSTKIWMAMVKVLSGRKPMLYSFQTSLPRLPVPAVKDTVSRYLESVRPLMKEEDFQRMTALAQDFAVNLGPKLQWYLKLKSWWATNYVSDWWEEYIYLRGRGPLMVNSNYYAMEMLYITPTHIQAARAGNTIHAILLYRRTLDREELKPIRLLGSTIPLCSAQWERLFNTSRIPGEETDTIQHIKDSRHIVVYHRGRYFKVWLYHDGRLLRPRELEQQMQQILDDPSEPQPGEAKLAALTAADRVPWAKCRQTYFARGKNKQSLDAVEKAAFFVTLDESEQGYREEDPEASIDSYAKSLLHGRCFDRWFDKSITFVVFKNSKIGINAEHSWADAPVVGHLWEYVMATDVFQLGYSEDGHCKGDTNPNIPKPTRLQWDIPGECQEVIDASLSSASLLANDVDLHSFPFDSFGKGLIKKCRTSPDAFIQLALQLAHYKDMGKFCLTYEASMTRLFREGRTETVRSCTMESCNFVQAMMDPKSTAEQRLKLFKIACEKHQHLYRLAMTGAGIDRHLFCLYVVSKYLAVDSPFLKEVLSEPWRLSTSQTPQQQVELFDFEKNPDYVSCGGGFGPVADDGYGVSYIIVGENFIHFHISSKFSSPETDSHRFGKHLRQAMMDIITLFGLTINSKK
The description is as §2.

Series [6] in a line: SUPPLEMENTARY: Lyophilisation Solubility Assay (LYSA). The format is physicochemical. To be noted: read-out: Kinetic_solubility.
Series [7] can be described thus: SUPPLEMENTARY: Lipophilicity (log D) Determination by high-throughput shake-flask. The format is physicochemical. Conditions: octanol/water.
Series [8] is described as follows: SUPPLEMENTARY: PAMPA permeability assay. The series is classed as physicochemical. Conditions: read-out: Permeability. On the technique in general: PAMPA measures passive passage across an artificial lipid membrane.

In the case of `COCCN(c1cc(C(=O)Nc2nc(CC(=O)O)cs2)cc2c1OCO2)S(=O)(=O)c1cc(Cl)ccc1OC`, the half-inhibitory concentration (IC50) is 3560 nM in series [1]; 74400 nM in series [2]; over 100000 nM in series [3]; 252 nM in series [4]; 154 nM in series [5]. Also, the solubility kinetic in series [6] came out at 238 µg/mL (≈ 408 µM). In series [7], this compound yielded a logD of 2.57. Also, in series [8], the Papp came out at 1.16 ×10⁻⁶ cm/s.

For `COc1ccc(Cl)cc1S(=O)(=O)N1CCOc2c(Cl)cc(C(=O)Nc3ncc(CC(=O)O)s3)cc21`, the IC50 was 685 nM in series [1]; over 100000 nM in series [2]; over 100000 nM in series [3]; 68.8 nM in series [4]; 37.2 nM in series [5]. Further, the solubility kinetic in series [6] stood at 5 µg/mL (≈ 8.95 µM). The logD in series [7] was 2.27. Besides, in series [8], the Papp stood at 3.12 ×10⁻⁶ cm/s.

`COc1ccc(Cl)cc1S(=O)(=O)N1CCOc2c(Cl)cc(C(=O)Nc3ccn(CC(=O)O)n3)cc21`: the IC50 in series [1] is 5650 nM; in series [2], over 100000 nM; in series [3], over 100000 nM; in series [4], 218 nM; in series [5], 144 nM. Moreover, the solubility kinetic in series [6] came to 558 µg/mL (≈ 1030 µM). For the same compound, in series [7], the logD was -0.79. For the same compound, the Papp in series [8] came to 0.03 ×10⁻⁶ cm/s.

(Values after ChEMBL document CHEMBL3431459, “Roche carnitine palmitoyltransferase modulator screening data (supplementary data associated with the publication CHEMBL2216752)”.)
